Columns and labels:
Assay type in all cases: biochemical
Lck enzyme = molecular target: T1, Lck enzyme (Homo sapiens, UniProt P06239); experiment: Lck enzyme activity, IMAP fluorescence polarization assay; conditions: 60 min pre-incubation, 6 μM ATP (Km)
T1 construct: purchased Millipore 14-442
Experimental: Lck enzyme activity is measured using the IMAP (immobilized metal ion affinity-based fluorescence polarization) assay as outlined below.
Lck enzyme (Millipore catalog#14-442), is diluted to 0.4 U/mL in KR buffer (10 mM Tris-HCl, 10 mM MgCl2, 0.01% Tween-20, 0.05% NaN3, 1 mM DTT, 2 mM MnCl2, pH 7.2). Serial dilution log 10 from 2 mM to 63.2 nM of test compounds are made in 100% DMSO. The dilutions in DMSO are then diluted 50-fold in KR-buffer of which 5 μl is used in the assay, leading to a final compound concentration range in the assay from 10 μM to 0.316 nM. 5 μL/well of test compound in KR buffer (final DMSO concentration in the assay is 1%) is mixed with 5 μl/well of 0.4 U/mL Lck enzyme (final concentration in the assay is 0.1 U/mL). Test compounds and Lck enzyme are pre-incubated 60 minutes at room temperature, before adding 5 μL/well of 400 nM Fluorescin labeled substrate peptide (p34cdc2 substrate peptide, e.g. #R7157/#R7172, Molecular Devices) in KR-buffer. Final peptide substrate concentration in assay is 100 nM. The kinase assay is started by adding 5 μL/well of 24 μM ATP in KR-buffer (final ATP concentration is 6 μM ATP, Km ATP in Lck IMAP assay). Following incubation for 2 h at room temperature the enzyme reaction is stopped by adding 40 μL/well IMAP Progressive Binding Solution (according to suppliers (Molecular Devices) protocol using 75% 1× buffer A and 25% 1× buffer B with 1:600 Progressive Binding Solution). After 60 min incubation at room temperature in the dark the FP signal is read. Fluorescence at 535 nm is measured using parallel and perpendicular filters to determine differences in rotation due to binding of the phosphorylated substrate peptide to the beads. Values are calculated as percentage of the difference in readout (ΔmPi) of the controls with and without ATP. EC50 values are determined by curve fitting of the experimental results using Activity Base.

Src enzyme = molecular target: T2, Src enzyme (Homo sapiens, UniProt P12931); experiment: Src enzyme activity, IMAP fluorescence polarization assay; conditions: 60 min pre-incubation, 4 μM ATP (Km)
T2 construct: purchased Millipore 14-326
T2 sequence (P12931 whole entry): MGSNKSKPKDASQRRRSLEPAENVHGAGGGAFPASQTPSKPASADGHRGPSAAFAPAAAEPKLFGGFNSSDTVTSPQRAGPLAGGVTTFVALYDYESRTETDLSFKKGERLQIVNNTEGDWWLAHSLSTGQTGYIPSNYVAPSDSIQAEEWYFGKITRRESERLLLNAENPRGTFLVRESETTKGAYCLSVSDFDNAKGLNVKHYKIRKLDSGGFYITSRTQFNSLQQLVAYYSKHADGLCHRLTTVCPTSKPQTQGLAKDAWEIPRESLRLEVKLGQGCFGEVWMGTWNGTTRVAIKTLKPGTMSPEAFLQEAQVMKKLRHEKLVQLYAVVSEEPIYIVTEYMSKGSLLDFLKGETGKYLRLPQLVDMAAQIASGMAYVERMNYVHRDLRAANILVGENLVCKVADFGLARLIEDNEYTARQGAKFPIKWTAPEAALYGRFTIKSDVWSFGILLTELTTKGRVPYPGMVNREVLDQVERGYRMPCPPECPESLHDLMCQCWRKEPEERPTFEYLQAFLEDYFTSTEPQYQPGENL
Experimental: Src enzyme activity is measured using the IMAP (immobilized metal ion affinity-based fluorescence polarization) assay as outlined below.
Src enzyme (Millipore catalog#14-326), is diluted to 0.8 U/mL in KR buffer (10 mM Tris-HCl, 10 mM MgCl2, 0.01% Tween-20, 0.05% NaN3, 1 mM DTT, 2 mM MnCl2, pH 7.2).
Serial dilution log 10 from 2 mM to 63.2 nM of test compounds are made in 100% DMSO. The dilutions in DMSO are then diluted 50-fold in KR-buffer of which 5 μl is used in the assay, leading to a final compound concentration range in the assay from 10 μM to 0.316 nM. 5 μL/well of test compound in KR buffer (final DMSO concentration in the assay is 1%) is mixed with 5 μl/well of 0.8 U/mL Src enzyme (final concentration in the assay is 0.2 U/mL). Test compounds and Src enzyme are pre-incubated 60 minutes at room temperature, before adding 5 μL/well of 400 nM Fluorescin labeled substrate peptide (p34cdc2 substrate peptide, e.g. #R7157/#R7172, Molecular Devices) in KR-buffer. Final peptide substrate concentration in assay is 100 nM. The kinase assay is started by adding 5 μL/well of 16 μM ATP in KR-buffer (final ATP concentration is 4 μM ATP, Km ATP in Src IMAP assay). Following incubation for 2 h at room temperature the enzyme reaction is stopped by adding 40 μL/well IMAP Progressive Binding Solution (according to suppliers (Molecular Devices) protocol using 75% 1× buffer A and 25% 1× buffer B with 1:600 Progressive Binding Solution). After 60 min incubation at room temperature in the dark the FP signal is read. Fluorescence at 535 nm is measured using parallel and perpendicular filters to determine differences in rotation due to binding of the phosphorylated substrate peptide to the beads. Values are calculated as percentage of the difference in readout (ΔmPi) of the controls with and without ATP. EC50 values are determined by curve fitting of the experimental results using Activity Base.

FynT enzyme = molecular target: T3, FynT enzyme (Homo sapiens, UniProt P06241); experiment: FynT enzyme activity, IMAP fluorescence polarization assay; conditions: 60 min pre-incubation, 0.2 μM ATP (Km)
T3 construct: purchased Biomol SE-287
T3 sequence (P06241 1-534 isoform P06241-2): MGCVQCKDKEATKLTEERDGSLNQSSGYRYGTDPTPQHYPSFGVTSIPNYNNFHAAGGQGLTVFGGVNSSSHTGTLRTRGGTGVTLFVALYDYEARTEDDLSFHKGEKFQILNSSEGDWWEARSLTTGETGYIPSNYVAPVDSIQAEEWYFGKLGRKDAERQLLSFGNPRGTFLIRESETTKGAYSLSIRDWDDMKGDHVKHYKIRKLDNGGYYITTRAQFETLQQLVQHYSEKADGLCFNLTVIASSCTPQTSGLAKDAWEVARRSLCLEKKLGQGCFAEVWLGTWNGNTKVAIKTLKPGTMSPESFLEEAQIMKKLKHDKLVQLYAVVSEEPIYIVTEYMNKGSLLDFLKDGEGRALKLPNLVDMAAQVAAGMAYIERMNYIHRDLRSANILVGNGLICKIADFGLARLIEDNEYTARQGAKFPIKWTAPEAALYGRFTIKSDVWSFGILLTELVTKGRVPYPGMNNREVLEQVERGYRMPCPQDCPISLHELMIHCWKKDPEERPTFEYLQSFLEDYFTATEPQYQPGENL
Experimental: FynT enzyme activity is measured using the IMAP (immobilized metal ion affinity-based fluorescence polarization) assay as outlined below.
FynT enzyme (Biomol catalog# SE-287), is diluted to 0.5 μg/mL in KR buffer (10 mM Tris-HCl, 10 mM MgCl2, 0.01% Tween-20, 0.05% NaN3, 1 mM DTT, 2 mM MnCl2, pH 7.2). Serial dilution log 10 from 2 mM to 63.2 nM of test compounds are made in 100% DMSO. The dilutions in DMSO are then diluted 50-fold in KR-buffer of which 5 μl is used in the assay, leading to a final compound concentration range in the assay from 10 μM to 0.316 nM. 5 μL/well of test compound in KR buffer (final DMSO concentration in the assay is 1%) is mixed with 5 μl/well of 0.5 μg/mL FynT enzyme (final concentration in the assay is 125 ng/mL). Test compounds and FynT enzyme are pre-incubated 60 minutes at room temperature, before adding 5 μL/well of 400 nM Fluorescin labeled substrate peptide (p34cdc2 substrate peptide, e.g. #R7157/#R7172, Molecular Devices) in KR-buffer. Final peptide substrate concentration in assay is 100 nM. The kinase assay is started by adding 5 μL/well of 0.8 μM ATP in KR-buffer (final ATP concentration is 0.2 μM ATP, Km ATP in FynT IMAP assay). Following incubation for 2 h at room temperature the enzyme reaction is stopped by adding 40 μL/well IMAP Progressive Binding Solution (according to suppliers (Molecular Devices) protocol using 75% 1× buffer A and 25% 1× buffer B with 1:600 Progressive Binding Solution). After 60 min incubation at room temperature in the dark the FP signal is read. Fluorescence at 535 nm is measured using parallel and perpendicular filters to determine differences in rotation due to binding of the phosphorylated substrate peptide to the beads. Values are calculated as percentage of the difference in readout (ΔmPi) of the controls with and without ATP. EC50 values are determined by curve fitting of the experimental results using Activity Base.

Lyn enzyme = molecular target: T4, Lyn enzyme (Homo sapiens, UniProt P07948); experiment: Lyn enzyme activity, IMAP fluorescence polarization assay; conditions: 60 min pre-incubation, 2 μM ATP (Km)
T4 construct: purchased Millipore 14-510
T4 sequence (P07948 whole entry): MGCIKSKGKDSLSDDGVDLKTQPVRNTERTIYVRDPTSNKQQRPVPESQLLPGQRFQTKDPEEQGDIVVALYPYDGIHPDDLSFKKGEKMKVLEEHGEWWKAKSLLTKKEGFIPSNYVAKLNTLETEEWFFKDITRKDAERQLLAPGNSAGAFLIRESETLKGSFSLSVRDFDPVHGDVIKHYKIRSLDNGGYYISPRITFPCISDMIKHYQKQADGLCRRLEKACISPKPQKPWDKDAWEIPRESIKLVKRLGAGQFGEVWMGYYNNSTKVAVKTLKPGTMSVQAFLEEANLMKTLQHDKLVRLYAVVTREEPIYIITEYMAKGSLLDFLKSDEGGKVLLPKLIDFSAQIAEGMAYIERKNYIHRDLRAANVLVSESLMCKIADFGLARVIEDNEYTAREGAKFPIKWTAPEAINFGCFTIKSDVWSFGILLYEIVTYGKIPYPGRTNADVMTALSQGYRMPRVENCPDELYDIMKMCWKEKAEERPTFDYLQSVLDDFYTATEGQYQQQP
Experimental: Lyn enzyme activity is measured using the IMAP (immobilized metal ion affinity-based fluorescence polarization) assay as outlined below.
Lyn enzyme (Millipore catalog#14-510), is diluted to 250 mU/mL in KR buffer (10 mM Tris-HCl, 10 mM MgCl2, 0.01% Tween-20, 0.05% NaN3, 1 mM DTT, 2 mM MnCl2, pH 7.2). Serial dilution log 10 from 2 mM to 63.2 nM of test compounds are made in 100% DMSO. The dilutions in DMSO are then diluted 50-fold in KR-buffer of which 5 μl is used in the assay, leading to a final compound concentration range in the assay from 10 μM to 0.316 nM. 5 μL/well of test compound in KR buffer (final DMSO concentration in the assay is 1%) is mixed with 5 μl/well of 250 mU/mL Lyn enzyme (final concentration in the assay is 62.5 mU/mL). Test compounds and Lyn enzyme are pre-incubated 60 minutes at room temperature, before adding 5 μL/well of 400 nM Fluorescin labeled substrate peptide (Blk/Lyntide substrate, e.g. #R7188/#R7233, Molecular Devices) in KR-buffer. Final peptide substrate concentration in assay is 100 nM. The kinase assay is started by adding 5 μL/well of 8 μM ATP in KR-buffer (final ATP concentration is 2 μM ATP, Km ATP in Lyn IMAP assay). Following incubation for 2 h at room temperature the enzyme reaction is stopped by adding 40 μL/well IMAP Progressive Binding Solution (according to suppliers (Molecular Devices) protocol using 75% 1× buffer A and 25% 1× buffer B with 1:600 Progressive Binding Solution). After 60 min incubation at room temperature in the dark the FP signal is read. Fluorescence at 535 nm is measured using parallel and perpendicular filters to determine differences in rotation due to binding of the phosphorylated substrate peptide to the beads. Values are calculated as percentage of the difference in readout (ΔmPi) of the controls with and without ATP. EC50 values are determined by curve fitting of the experimental results using Activity Base.

Measured: EC50

T1 sequence (P06239 whole entry): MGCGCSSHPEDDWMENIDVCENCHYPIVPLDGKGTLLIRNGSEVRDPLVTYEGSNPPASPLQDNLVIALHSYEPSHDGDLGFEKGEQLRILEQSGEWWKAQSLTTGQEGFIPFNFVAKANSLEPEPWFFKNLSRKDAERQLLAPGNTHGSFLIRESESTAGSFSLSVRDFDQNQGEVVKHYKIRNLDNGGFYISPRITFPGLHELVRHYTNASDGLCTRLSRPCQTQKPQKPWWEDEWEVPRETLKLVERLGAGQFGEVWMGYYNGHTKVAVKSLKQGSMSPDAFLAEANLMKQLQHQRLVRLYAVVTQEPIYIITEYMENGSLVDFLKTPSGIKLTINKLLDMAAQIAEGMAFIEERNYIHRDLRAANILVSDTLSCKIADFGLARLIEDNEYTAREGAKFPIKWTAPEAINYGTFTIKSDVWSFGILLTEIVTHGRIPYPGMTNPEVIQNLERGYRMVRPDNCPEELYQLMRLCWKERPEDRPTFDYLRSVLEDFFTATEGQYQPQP

COC/C=C/C(=O)N1CCCC[C@H]1c1nc(-c2ccc(C(=O)Nc3cc(C(F)(F)F)ccn3)cc2)c2c(C)nccn12 [Example 30, (S,E)-4-(3-(1-(4-methoxybut-2-enoyl)piperidin-2-yl)-8-methylimidazo[1,5-a]pyrazin-1-yl)-N-(4-(trifluoromethyl)pyridin-2-yl)benzamide]
≥ 1000 nM: all assays above

Cc1nccn2c([C@@H]3CCCN3C(=O)/C=C/CN(C)C)nc(-c3ccc(C(=O)Nc4ccccn4)cc3)c12 [Example 31, (S,E)-4-(3-(1-(4-(dimethylamino)but-2-enoyl)pyrrolidin-2-yl)-8-methylimidazo[1,5-a]pyrazin-1-yl)-N-(pyridin-2-yl)benzamide]
≥ 1000 nM: all assays above

CC#CC(=O)N1CCC[C@H]1c1nc(-c2ccc(C(=O)Nc3cc(C#N)ccn3)cc2)c2c(C)nccn12 [Example 32, (S)-4-(3-(1-but-2-ynoylpyrrolidin-2-yl)-8-methylimidazo[1,5-a]pyrazin-1-yl)-N-(4-cyanopyridin-2-yl)benzamide]
≥ 1000 nM: all assays above

CC#CC(=O)N1CCC[C@H]1c1nc(-c2ccc(C(=O)Nc3cc(CCC)ccn3)cc2)c2c(C)nccn12 [Example 33, (S)-4-(3-(1-but-2-ynoylpyrrolidin-2-yl)-8-methylimidazo[1,5-a]pyrazin-1-yl)-N-(4-propylpyridin-2-yl)benzamide]
≥ 1000 nM: all assays above

CCCc1ccnc(NC(=O)c2ccc(-c3nc([C@@H]4CCCCN4C(=O)/C=C/COC)n4ccnc(C)c34)cc2)c1 [Example 34, (S,E)-4-(3-(1-(4-methoxybut-2-enoyl)piperidin-2-yl)-8-methylimidazo[1,5-a]pyrazin-1-yl)-N-(4-propylpyridin-2-yl)benzamide]
≥ 1000 nM: all assays above

CCCc1ccnc(NC(=O)c2ccc(-c3nc([C@H](C)N(C)C(=O)/C=C/COC)n4ccnc(C)c34)cc2)c1 [Example 39, (S,E)-4-(3-(1-(4-methoxy-N-methylbut-2-enamido)ethyl)-8-methylimidazo[1,5-a]pyrazin-1-yl)-N-(4-propylpyridin-2-yl)benzamide]
≥ 1000 nM: all assays above

Source: US20140155406A1, “4-IMIDAZOPYRIDAZIN-1-YL-BENZAMIDES AND 4-IMIDAZOTRIAZIN-1-YL-BENZAMIDES BTK INHIBITORS” (priority 2011, published 2014)
